Assay [1] has as its system human umbilical vein endothelial cells (HUVECs). Briefly: ORIS Cell Migration Assay. Type of assay: cell-based. As to conditions: HUVEC, fibronectin-coated plates, 24 h migration. On the procedure: Endothelial cell wound healing is mediated by endothelial cell migration and proliferation, both critical components of the angiogenesis process, and is routinely used as a surrogate model for in vitro angiogenic potential. The ORIS™ Cell Migration Assay was used with human umbilical vein endothelial cells (HUVECs).
HUVEC cells (SCCE-001, Cat no. 1000519, Merck Chemicals) were cultured in T175 flasks (Cat no 353112, falcon) in EndoGro Growth Medium (SCME-003, Merck Chemicals) and split when they reached 90-100% confluence.
For the assay, cells were used at passage 2 to 4 after thawing and at 80-90% confluency. At the beginning of the day, the fibronectin-coated Oris™ Cell Migration Assay Plates (Cat no #CMAFN.I01, AMS Biotechnology) were removed from refrigeration and placed at RT for 1 h. […]
Just prior to the end of the incubation, a 4 μg/mL calcein AM (Cat no 354217, Beckton Dickinson) solution was prepared in pre-warmed HBSS (Cat no 14025, Gibco). […] After incubation the fluorescence was read at 494 nm excitation and 517 nm emission wavelengths using the Flexstation and the SofiMax Pro 5.4.5 software (Molecular Devices). The fluorescence was read from the bottom of the plates with the lid on to keep them sterile. The masks were then removed and pictures were taken with the Axiovert fluorescence microscope (Zeiss) using reflected light, GFP and a 2.5× objective.

Assay [2] concerns RPE-choroid sclera explants. As to conditions: read-out: IC50 vessel outgrowth; murine choroid explants in fibrin gel, 3 to 4 days.
Source text: The assay is based on a murine microvascular angiogenesis explant model, which closely mimics in viva choroidal angiogenesis. […] The choroidal explant model or briefly EMCA model allows for rapid evaluation of new anti-angiogenic therapeutics, with the additional benefit of excluding the potential lack of exposure often encountered when testing small molecules in animal eyes. RPE-choroid sclera explants (hereinafter referred to as choroid explants) are embedded in a three-dimensional fibrinogen/fibrin gel. Addition of serum-containing medium induces extensive endothelial cell sprout outgrowth into the matrix after 3 to 4 days in culture.
All experiments were performed using 4 to 5-weeks old male C57BL/6J mice (Charles River Laboratories France), housed under standard laboratory conditions according to a normal day/night rhythm with ad libitum access to food and water. […]
After 3 to 4 days, bright field pictures were taken at 2.5× magnification with the Axio Vert.A1 inverted microscope (Zeiss) using ZEN lite 2012 microscope software (Zeiss). […] Further analysis was performed in Microsoft Excel, where the sprouting area of endothelial organotypic culture was quantified by subtracting the area of the tissue explant from the total area occupied by the sprouts.

Results on one compound are retold here after US20210198258A1, “INTEGRIN ANTAGONISTS” (Oxurion NV, priority 2018, published 2021).

The term IC50 denotes the midpoint of a concentration-inhibition curve.

`CC(C)[C@H]1C(=O)N[C@@H](CCCN=C(N)N)C(=O)NCC(=O)N[C@@H](CC(=O)O)C(=O)N[C@H](Cc2ccccc2)C(=O)N1C` [Cilengitide]: the IC50 in assay [1] is 100 µM; in assay [2] it was roughly 300 µM.
